Test results as given in patent US12606543B2, “Indole derivatives as serotonergic agents useful for the treatment of disorders related thereto” (priority 2023, dated 2026).
Where two headings read alike, the source gives them in different places.

Assay: Pharmacokinetic studies in rat (i.v.)
Type: in vivo
Conditions: male, Sprague-Dawley, plasma; for concentration at 0.25 h / concentration at 1 h / concentration at 4 h: intravenous, dose per Dose column (1.32-2.09 mg/kg); for half-life / AUC(0-t): iv, rat plasma, i.v., dose per Dose column; for half-life: estimated from 2 points only
Description: Animals: Male Sprague-Dawley rats (˜225-350 g) from Charles River Labs were acclimatized for a minimum of 5 days prior to start of study procedures. Body weights were recorded on the day of dosing.
Any abnormalities were documented including presence/absence of wet dog shakes/back muscle contractions (WDS/BMC).
Dosing: Formulations were administered intravenously (i.v.) via the tail vein using a 25 G needle connected to a 1 cc syringe.
The exemplary compounds of Formula (I) were freshly prepared at the appropriate concentrations in 5% Tween-80 in saline.
Blood collection time (h): 0, […], 1 and 4
Volume/time-point: ˜0.25 mL (saphenous vein)
Instrumentation: AB Sciex QTRAP 4000 or 6500 MS/MS system equipped with an LC system with a binary pump, a solvent degasser, a thermostated column compartment, and a multiplate autosampler.
Analysis software: Phoenix® WinNonlin® 8.3 (Pharsight, Certara, Mountainview, CA).
Analysis methods: non-compartmental analysis, linear up/log down trapezoidal rule.
PK parameters: t1/2 and AUC0-tlast was estimated.
The Compounds of Formula (I) were freshly prepared at the appropriate concentrations in 5% Tween-80 in saline.
Instrumentation: AB Sciex QTRAP 4000 or 6500 MS/MS system equipped with an LC system with a binary pump, a solvent degasser, a thermostated column compartment and a multiplate autosampler.
PK parameters: t1/2 and AUC0-tlast will be estimated.

[1] = first animal (R07/R04/R01/R10), read-out: Plasma concentration
[2] = mean of 3 rats, read-out: Plasma concentration, Mean ± SD
[3] = second animal (R08/R05/R02/R11), read-out: Plasma concentration
[4] = third animal (R09/R06/R03/R12), read-out: Plasma concentration
[5] = first animal (R07/R04/R01/R10), read-out: Apparent t1/2 (converted)
[6] = mean of 3 rats, read-out: Apparent t1/2, Mean ± SD (converted)
[7] = second animal (R08/R05/R02/R11), read-out: Apparent t1/2 (converted)
[8] = third animal (R09/R06/R03/R12), read-out: Apparent t1/2 (converted)
[9] = first animal (R07/R04/R01/R10), read-out: AUC0-tlast
[10] = mean of 3 rats, read-out: AUC0-tlast, Mean ± SD
[11] = second animal (R08/R05/R02/R11), read-out: AUC0-tlast
[12] = third animal (R09/R06/R03/R12), read-out: AUC0-tlast

SMILES	concentration at 0.25 h [1] [µg/mL]	concentration at 0.25 h [2] [µg/mL]	concentration at 0.25 h [3] [µg/mL]	concentration at 0.25 h [4] [µg/mL]	concentration at 1 h [1] [µg/mL]	concentration at 1 h [2] [µg/mL]	concentration at 1 h [3] [µg/mL]	concentration at 1 h [4] [µg/mL]	concentration at 4 h [1] [µg/mL]	concentration at 4 h [2] [µg/mL]	concentration at 4 h [3] [µg/mL]	concentration at 4 h [4] [µg/mL]	half-life [5] [h]	half-life [6] [h]	half-life [7] [h]	half-life [8] [h]	AUC(0-t) [9] [µg·h/mL]	AUC(0-t) [10] [µg·h/mL]	AUC(0-t) [11] [µg·h/mL]	AUC(0-t) [12] [µg·h/mL]
[2H]C([2H])(c1c[nH]c2ccc(OCCCCCN3C(=O)C4CCCCC4C3=O)cc12)[C@H]1CCCN1C([2H])([2H])[2H] (mixture of isomers) [Rac (R) I-248]	0.235	0.377 ± 0.123	0.437	0.459	0.134	0.144 ± 0.0159	0.135	0.162	0.0278	0.0188 ± 0.00829	0.0115	0.017	1.25	0.939 ± 0.269	0.747	0.823	0.402	0.474 ± 0.071	0.477	0.544
[2H]C([2H])(c1c[nH]c2ccc(OCCCCCN3C(=O)c4ccccc4C3=O)cc12)[C@H]1CCCN1C([2H])([2H])[2H] [(R) I-245, (R)-2-(5-((3-((1-(Methyl-d3)pyrrolidin-2-yl)methyl-d2)-1H-indol-5-yl)oxy)pentyl)isoindoline-1,3-dione]	0.307	0.178 ± 0.119	0.154	0.0718	0.17	0.13 ± 0.0366	0.121	0.0983	0.0399	0.0439 ± 0.00421	0.0436	0.0483	1.32	2.1 ± 0.806	2.05	2.93	0.528	0.397 ± 0.12	0.37	0.293
